Experimental data: patent US20220095609A1, “FREEZING OF BIOLOGICAL MATERIAL” (SCI-GROUP AS, priority 2018, published 2022)

Assays:
cells = assay: MTS bioassay, viability after freezing and thawing; type: cell-based
From the text: […] the presence of a combined magnetic (0.2-0.3 T)-pulsing electric fields (20V (220V/m)-20kHZ), in the presence or absence of DMSO (0-5%) measured as the fraction of cells retaining their full proliferative capacity after freezing, monitored with a rapid bioassay-MTS-as an alternative to conventional plating efficiency testing.
The experiment included the standard method used by most researchers, i.e. freezing with 5% DMSO in a “Nalgene Mr Frosty” apparatus (Merck KgaA, Germany), operated with a 15 minutes phase-transition time corresponding to the state of the art freezing rate of 1 degree per minute.
The cells were grown to 70% confluence in 162 cm^2 flasks as monolayer cultures in Ham's F12 medium supplemented with 10% fetal calf serum (FBS). The cells were kept in continuous exponential growth by re-culturing twice per week. Harvest for re-culturing or for freezing was done by removing the growth medium, rinsing two times in 1.5 ml trypsin EDTA solution (0.05% and 0.02% respectively), and incubating cultures for 5 min at 37° C. in the residual trypsin solution. The trypsinization was stopped by adding Ham's F12 medium with FBS.
(§1) Cells were resuspended and counted using Countess Automated Cell counter with Trypan Blue Stain (0.4%) to estimate the cell viability.
The cell suspension was transferred to 15 ml tube and centrifuged (200xg, 5 min, 4° C.). The supernatant was removed and the cell pellets were resuspended in cold FBS to give a final concentration of 2×10^6 cells/ml. 0.5 ml of the cell suspension was transferred to 2 ml cryo-tube. Equal volume (0.5 ml) freezing medium with or without DMSO-medium was added to each cryotube to give a final 5% concentration of DMSO and 1×10^6 cells per ml in each tube.
After 15 days in liquid nitrogen samples were thawed and cells seeded for MTS assay as follows: • cells were transferred to 15 ml tubes containing 4 ml culture media (total volume of 4+1=5 ml) and centrifuged at 200×g, 10 min, 4° C. • cells were resuspended in 1 ml media with 1% FBS and further diluted 10 times to give a concentration of 1×10^5/ml based on the initial counting before freezing. • After dilution, 0.2 ml of cells from each freezing condition was seeded in 96 well plates and the plates were incubated at 37° C. until the next day. • After the overnight incubation, media was removed and 0.1 ml of a fresh 1% FBS media was added. 20 μl of MTS reagent was added. • Finally, OD490 values were read after 1-4 hours incubation. The number of viable cells/well were calculated based on a standard curve generated using ongoing cell cultures. The calculation was performed in GraphPad Prism 8, using four parameter nonlinear logistic regression and the curve fitting function.

[1] = test system: adherent CHO cells (chinese hamster ovary cells K1); assay: Colony formation (plating efficiency) after freezing and thawing, adherent CHO cells; type: cell-based
From the text: The objective was to test the importance of the duration of ice-formation (=time to remove latent heat during ice formation) of seed stocks of adherent CHO cells (chinese hamster ovary cells K1 for viability after thawing. In addition to variation in ice-forming time two variables have been tested: • Cells frozen without DMSO or with 5% DMSO • Cells frozen within a mixed strong magnetic (0,2-0,3T)-pulsing electric (20V (220V/m)-20kHZ) field (hereinafter termed “Strong MAG/PEF”), or just outside the Field Box in a weak magnetic (0,005-0,008T)-pulsing electric (7-16V (75-185V/m)-20 kHz) (hereinafter “Weak MAG/PEF) field.
The cells were grown in 162 cm^2 flasks as monolayer cultures in Ham's F12 medium supplemented with 10% fetal calf serum. The cells were kept in continuous exponential growth by re-culturing twice per week. Harvest for re-culturing or for freezing was done by removing the growth medium, rinsing two times in 1.5 ml trypsin EDTA solution (0.05% and 0.02% respectively), and incubating cultures for 5 min at 37° C. in the residual trypsin solution. The trypsinization was stopped by adding Ham's F12 medium with FBS.
as §1
The cell suspension was transferred to 15 ml tube and centrifuged (200 g, 5 min, 4° C.). The supernatant was removed and the cell pellets were resuspended in cold FBS to give a final concentration of 2×10^6 cells/ml. 0.5 ml of the cell suspension was transferred to 2 ml cryo-tube. Equal volume (0.5 ml) freezing medium with or without DMSO-medium was added to each cryotube to give a final 5% concentration of DMSO and 1×10^6 cells per ml in each tube.
After 10 days in liquid nitrogen samples were thawed and cells seeded for colony formation. There were 3 parallel flasks for each sample tested. The control was the traditional procedure used in the laboratory with 5% DMSO and with 30 min in −20° C., 45 min in ˜−80° C. and final storage in liquid N2.
The flasks were incubated for colony formation in a Steri-cult 200 incubator operated at 37° C. and with 5% CO2 in the atmosphere. Incubation continued for six days. For counting of macroscopic colonies cells were fixed in ethanol and stained with methylene blue.

T98G glioblastoma cells = assay: Colony formation (plating efficiency) after freezing and thawing, T98G; type: cell-based, human; details: Standard freezing with 5% DMSO (30 min -20° C., 45 min ~-80° C., liquid N2); T-98G
From the text: (§2) The objective was to test the importance of the duration of ice-formation time (=time to remove latent heat during ice formation) of seed stocks of two established human cells lines: T-47D breast cancer cells and T98G glioblastoma cells, for viability after thawing. In addition to variation in ice-forming time two variables have been tested: • Cells frozen without DMSO or with 5% DMSO • Cells frozen within a mixed strong magnetic (0.2-0.3 T)-pulsing electric (20V (220V/m)-20kHZ) field (hereinafter termed “Strong MAG/PEF”), or just outside the Field Box in a weak magnetic (0,005-0,008T)-pulsing electric (7-16V (75-185V/m)-20 kHz) (hereinafter “Weak MAG/PEF) field.
(§3) The cells of both types were grown as monolayer cultures in RPMI 1640 medium (Gibco, Rockwill, Md., USA) supplemented with 10% fetal calf serum (Gibco), 2 mM L-glutamine, 200 units/I insulin and 1% penicillin/streptomycin (Gibco). […]
(§4) For each cell type separate preparation of samples for freezing was performed by standard trypsin treatment of several flasks and pooling of the cells after removal of the trypsin solution and re-suspending of the cells in RPMI-medium. After pooling the cell numbers per ml were accurately counted on a flow cytometer and thereafter dilutions of cell suspensions suitable to obtain the concentration of cells desired for transfer to the cryo-tubes were made for each cell type. […]

[2] = test system: T-47D breast cancer cells; assay: Colony formation (plating efficiency) after freezing and thawing, T-47D; type: cell-based, human; details: Standard freezing with 5% DMSO (30 min -20° C., 45 min ~-80° C., liquid N2)
From the text: as §2, §3, §4

SMILES: C[S+](C)[O-] [DMSO, Dimethyl sulfoxide]
- difference in viability between 2 min and 3 min (optimal point) phase-transition time (cells; 1% DMSO): 13%
- difference in viability between 3 min and 4 min phase-transition time (cells; 1% DMSO): 39%
- percentage viability after freezing and thawing (cells; 1% DMSO, phase-transition time 1.4 min, magnetic 0.2-0.3 T, pulsing electric field): 8%
- percentage viability after freezing and thawing (cells; 1% DMSO, phase-transition time 1.8 min, magnetic 0.2-0.3 T, pulsing electric field): 26%
- percentage viability after freezing and thawing (cells; 1% DMSO, phase-transition time 2 min, magnetic 0.2-0.3 T, pulsing electric field): 36%
- percentage viability after freezing and thawing (cells; 1% DMSO, phase-transition time 2.2 min, magnetic 0.2-0.3 T, pulsing electric field): 35%
- percentage viability after freezing and thawing (cells; 1% DMSO, phase-transition time 2.4 min, magnetic 0.2-0.3 T, pulsing electric field): 41%
- percentage viability after freezing and thawing (cells; 1% DMSO, phase-transition time 2.6 min, magnetic 0.2-0.3 T, pulsing electric field): 45%
- percentage viability after freezing and thawing (cells; 1% DMSO, phase-transition time 2.7 min, magnetic 0.2-0.3 T, pulsing electric field): 47%
- percentage viability after freezing and thawing (cells; 1% DMSO, phase-transition time 3 min, magnetic 0.2-0.3 T, pulsing electric field): 47%
- percentage viability after freezing and thawing (cells; 1% DMSO, phase-transition time 4 min, magnetic 0.2-0.3 T, pulsing electric field): 4%
- percentage viability after freezing and thawing (cells; 1% DMSO, phase-transition time 5.5 min, magnetic 0.2-0.3 T, pulsing electric field): 4%
- percentage viability after freezing and thawing (cells; 2% DMSO, phase-transition time 1.4 min, magnetic 0.2-0.3 T, pulsing electric field): 36%
- percentage viability after freezing and thawing (cells; 2% DMSO, phase-transition time 1.8 min, magnetic 0.2-0.3 T, pulsing electric field): 57%
- percentage viability after freezing and thawing (cells; 2% DMSO, phase-transition time 2 min, magnetic 0.2-0.3 T, pulsing electric field): 53%
- percentage viability after freezing and thawing (cells; 2% DMSO, phase-transition time 2.2 min, magnetic 0.2-0.3 T, pulsing electric field): 61%
- percentage viability after freezing and thawing (cells; 2% DMSO, phase-transition time 2.4 min, magnetic 0.2-0.3 T, pulsing electric field): 52%
- percentage viability after freezing and thawing (cells; 2% DMSO, phase-transition time 2.6 min, magnetic 0.2-0.3 T, pulsing electric field): 63%
- percentage viability after freezing and thawing (cells; 2% DMSO, phase-transition time 2.7 min, magnetic 0.2-0.3 T, pulsing electric field): 65%
- percentage viability after freezing and thawing (cells; 2% DMSO, phase-transition time 3 min, magnetic 0.2-0.3 T, pulsing electric field): 66%
- percentage viability after freezing and thawing (cells; 2% DMSO, phase-transition time 4 min, magnetic 0.2-0.3 T, pulsing electric field): 27%
- percentage viability after freezing and thawing (cells; 2% DMSO, phase-transition time 5.5 min, magnetic 0.2-0.3 T, pulsing electric field): 17%
- percentage viability after freezing and thawing (cells; 5% DMSO, phase-transition time 1.8 min, magnetic 0.2-0.3 T, pulsing electric field): 76%
- percentage viability after freezing and thawing (cells; 5% DMSO, phase-transition time 2.2 min, magnetic 0.2-0.3 T, pulsing electric field): 74%
- percentage viability after freezing and thawing (cells; 5% DMSO, phase-transition time 2.4 min, magnetic 0.2-0.3 T, pulsing electric field): 90%
- percentage viability after freezing and thawing (cells; 5% DMSO, phase-transition time 2.6 min, magnetic 0.2-0.3 T, pulsing electric field): 98%
- percentage viability after freezing and thawing (cells; 5% DMSO, phase-transition time 2.7 min, magnetic 0.2-0.3 T, pulsing electric field): 97%
- percentage viability after freezing and thawing (cells; 5% DMSO, phase-transition time 3 min, magnetic 0.2-0.3 T, pulsing electric field): 97%
- percentage viability after freezing and thawing (cells; 5% DMSO, phase-transition time 4 min, magnetic 0.2-0.3 T, pulsing electric field): 99%
- percentage viability after freezing and thawing (cells; 5% DMSO, phase-transition time 5.5 min, magnetic 0.2-0.3 T, pulsing electric field): 99%
- percentage viability after freezing and thawing (cells; 5% DMSO, phase-transition time 15 min, standard method, Nalgene Mr Frosty, 1 degree per minute): 68%
- PE: plating efficiency (%) ([1]; 5% DMSO, ice formation time 1 min 55 sec, Strong MAG/PEF): 88%
- PE: plating efficiency (%) ([1]; 5% DMSO, ice formation time 1 min 55 sec, Weak MAG/PEF): 98%
- PE: plating efficiency (%) ([1]; 5% DMSO, ice formation time 4 min 8 sec, Weak MAG/PEF): 95%
- PE: plating efficiency (%) ([1]; 5% DMSO, ice formation time 5 min 7 sec, Strong MAG/PEF): 72%
- PE: plating efficiency (%) ([1]; 5% DMSO, ice formation time 5 min 7 sec, Weak MAG/PEF): 64%
- PE: plating efficiency (%) ([1]; 4 min): 107 (artefacted) %
- Plating efficiency—PE (%) (T98G glioblastoma cells): 57%
- Plating efficiency—PE (%) [2]: 80-90%
